The values that follow come from article PMC9967051, “(S)-N-Benzyl-1-phenyl-3,4-dihydroisoqunoline-2(1H)-carboxamide Derivatives, Multi-Target Inhibitors of Monoamine Oxidase and Cholinesterase: Design, Synthesis, and Biological Activity” (Molecules, 2023).

Like-named read-outs stand apart in the source and are kept apart here.

On the set-up of data set [1]: method as in doi:10.1007/s00044-018-2261-2. As to conditions: forced swimming test, p< 0.001; cited from earlier work.
The next data set relates to MAO. Description: MAO activity assay (total MAO). It counts as biochemical. The protocol: (§1) The enzyme activity analysis was performed according to the procedure reported by Matsumoto et al. with slight modifications. All materials used in the enzymatic assays were purchased from Aladdin Reagent Chemicals. […] The concentrations of the synthesized compounds altered from 0.001 µM to 100 µM for the MAO-A and -B enzyme activity inhibition. […] The enzymatic reactions were caused by the addition of MAO-A (40 µg/mL) or MAO-B (20 µg/mL), and cultured at 37 °C for 30 min. The enzyme reactions were stopped through the addition of 2N NaOH for 75 µL. […] The inhibitory effect of enzyme activity was calculated as a percentage of product formation compared to the corresponding control with no inhibitor. A control was established to determine the interference of the tested compounds to the fluorescence assay, and the enzyme or substrate was added after the reaction stopped.

The target of data set [2] is T1, MAO-A (Homo sapiens, UniProt P21397).
T1 construct: purchased Aladdin Reagent Chemicals
T1 sequence (P21397 1-527): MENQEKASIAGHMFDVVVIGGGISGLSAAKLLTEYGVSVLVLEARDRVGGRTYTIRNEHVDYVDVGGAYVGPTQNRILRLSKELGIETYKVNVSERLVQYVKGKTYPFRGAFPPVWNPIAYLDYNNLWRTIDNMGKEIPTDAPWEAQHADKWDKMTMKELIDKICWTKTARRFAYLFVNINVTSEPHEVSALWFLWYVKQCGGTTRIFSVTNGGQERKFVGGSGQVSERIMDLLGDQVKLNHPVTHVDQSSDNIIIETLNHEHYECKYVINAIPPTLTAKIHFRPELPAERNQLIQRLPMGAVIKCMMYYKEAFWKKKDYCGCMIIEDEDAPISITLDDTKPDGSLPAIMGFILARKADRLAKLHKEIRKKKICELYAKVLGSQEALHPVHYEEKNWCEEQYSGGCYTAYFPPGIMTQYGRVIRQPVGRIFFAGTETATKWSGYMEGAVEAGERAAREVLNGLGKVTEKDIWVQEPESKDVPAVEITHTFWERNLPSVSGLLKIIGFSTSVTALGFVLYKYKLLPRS
Description: MAO activity assay, MAO-A. It is filed as biochemical. On the procedure:
as §1

The test system of data set [3] is L929 cells. Description: AO fluorescent staining cell viability. As to conditions: 100 μM, compared with the control group. It counts as cell-based. On the procedure: Using the AO Fluorescent Staining Kit, AO is a tricyclic heteroaromatic dye that can penetrate cells with intact cell membranes and embed nuclear DNA, making them emit bright green fluorescence. L929 cells were selected from the logarithmic growth phase, and the cell density was adjusted to 8 × 10^5 per well with a cell counter to inoculate in a 6-well plate, and the 6-well plate was placed in a 37 °C 5% carbon dioxide cell incubator for 12 h. It grew completely adhering to the wall. After 12 h, 1 mL of medium containing 100 μM of the compound to be tested was added (for the blank group, drug-free medium was added), shaken gently, and placed in a 5% carbon dioxide cell incubator at 37 °C for 12 h. After 12h, the medium was discarded, PBS was added to wash once, 1 mL of PBS and 80 μL of AO solution (prepared according to the kit instructions) were slowly added in the dark, and mixed for 5 min to make the staining uniform and sufficient. The staining was aspirated after 5 min, washed 1–2 times with PBS, and observed under a fluorescence microscope, the results were recorded and analyzed.

Data set [4] has as its target T2, MAO-B (Homo sapiens, UniProt P27338).
T2 construct: purchased Aladdin Reagent Chemicals
T2 sequence (P27338 1-520): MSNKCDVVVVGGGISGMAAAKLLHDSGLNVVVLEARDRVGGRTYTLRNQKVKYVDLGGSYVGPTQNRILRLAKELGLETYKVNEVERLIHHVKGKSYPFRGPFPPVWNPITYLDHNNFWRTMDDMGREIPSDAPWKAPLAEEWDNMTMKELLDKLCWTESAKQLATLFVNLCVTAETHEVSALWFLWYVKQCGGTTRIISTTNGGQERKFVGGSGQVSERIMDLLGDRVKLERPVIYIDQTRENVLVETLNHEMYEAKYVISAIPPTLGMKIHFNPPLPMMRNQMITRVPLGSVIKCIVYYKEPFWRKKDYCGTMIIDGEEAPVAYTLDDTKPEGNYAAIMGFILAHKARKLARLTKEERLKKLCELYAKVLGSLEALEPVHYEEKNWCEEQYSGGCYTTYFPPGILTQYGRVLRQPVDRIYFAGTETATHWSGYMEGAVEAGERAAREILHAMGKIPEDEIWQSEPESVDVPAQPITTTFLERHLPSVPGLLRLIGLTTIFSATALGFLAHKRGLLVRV
Description: MAO activity assay, MAO-B. It counts as biochemical. The protocol: as §1

Data set [5] has as its system L929 cells. Description: MTT cytotoxicity test. As to conditions: MTT, 3.125 to 100 μM. It counts as cell-based. On the procedure:
(§2) L929 cells in the logarithmic growth phase were selected, and the cell density was adjusted to 2 × 10^4 per well by a cell counter. The 96-well plate was inoculated in a 96-well plate, and the 96-well plate inoculated with cells was cultured in a 37 °C 5% carbon dioxide cell incubator for 24 h. Then, the medium containing 100 μM of the compound to be tested was added (the blank group was added to the medium without drug), shaken gently, and placed in a 5% carbon dioxide cell incubator at 37 °C for 24 h. Each concentration was repeated for […].
(§3) The assay detects live cells, but not dead cells, and the resulting signal depends on how activated the cells are. […] Therefore, MTT has been used to establish quantitative colorimetric assays for mammalian cell survival and proliferation. Therefore, this method can be used to measure cytotoxicity, proliferation, or activation. After 24 h, 20 μL of […] MTT solution (prepared in PBS with pH 7.6) was added in the dark, and cultured in a cell incubator for another 4 h. After 4 h, the 96 plate was taken out to discard the original medium, and 160 μL of DMSO was added, placed on a shaker, and mixed for about 10 min. Then, a microplate reader was used to measure its absorbance at 490 nm, and the results were recorded and analyzed.

Another data set can be described thus: MTT cytotoxicity test. It is filed as cell-based. As to conditions: mouse; L929 cells, compared with the blank control, 3.125 to 100 μM. The protocol: as §2, §3
Data set [6] addresses T3, BChE (Homo sapiens, UniProt P06276). In words: biochemical. Particulars: compounds concentration 100 µM; read-out: Inhibition Rate BChE. On the procedure: Inhibition of AChE and BChE was measured through the spectrophotometric method developed by Ellman’s method with slight modifications. The analysis protocol contained 96-well plates (100 µL per well). Each well involved 20 µL of assay buffer solution, 20 µL of the test sample, and 40 µL of 0.2 U/mL of AChE or BChE. The mixture was incubated for 10 min at 25 °C followed by the addition of substrate (20 µL). For AChE inhibition assay, acetylthiocholine iodide (ATCI, 0.001 mol/L), while for BChE assay, butyrylthiocholine chloride (BTCCl, 0.001 mol/L) was added to it. The mixture was incubated at 37 °C for 15 min. Ellman reagent (5,5′-dithio-bis(2-nitrobenzoic acid), DTNB, 0.001 mol/L) was added. […] The blank analysis was performed. All the analyses were performed in triplicate. Inhibition rate of experimental sample or positive control group (%) = [(control group-blank background)-(experimental sample or positive control group -sample background)]/(control-blank background) × 100%.

For data set [7], the target named is T1, MAO-A. As to conditions: cited from earlier work.
Data set [8] addresses horse serum butyrylcholinesterase (EqBChE). Particulars: cited from earlier work.
Data set [9] deals with electric eel acetylcholinesterase (EeAChE). Particulars: cited from earlier work.
For data set [10], the target named is T2, MAO-B. As to conditions: cited from earlier work.
The next data set has as its target AChE (Homo sapiens, UniProt P22303). As to conditions: cited from earlier work.
The target of data set [11] is T3, BChE. Particulars: cited from earlier work.

T3 sequence (P06276 29-602): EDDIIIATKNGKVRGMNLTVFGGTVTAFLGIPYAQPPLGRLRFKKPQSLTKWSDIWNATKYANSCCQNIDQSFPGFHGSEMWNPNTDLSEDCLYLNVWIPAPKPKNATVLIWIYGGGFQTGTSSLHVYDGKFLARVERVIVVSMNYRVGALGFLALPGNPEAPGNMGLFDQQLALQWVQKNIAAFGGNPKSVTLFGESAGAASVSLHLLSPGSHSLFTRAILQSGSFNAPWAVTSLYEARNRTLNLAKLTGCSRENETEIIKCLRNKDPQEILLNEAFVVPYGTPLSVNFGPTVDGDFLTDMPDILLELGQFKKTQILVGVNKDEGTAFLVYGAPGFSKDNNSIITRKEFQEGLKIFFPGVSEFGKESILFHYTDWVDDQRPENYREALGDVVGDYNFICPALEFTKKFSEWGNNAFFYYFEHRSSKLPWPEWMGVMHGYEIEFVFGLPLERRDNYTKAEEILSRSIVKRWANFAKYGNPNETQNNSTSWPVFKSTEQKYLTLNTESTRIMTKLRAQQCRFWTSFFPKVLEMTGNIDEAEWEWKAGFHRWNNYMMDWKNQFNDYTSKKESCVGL
Chain of AChE (P22303 32-614): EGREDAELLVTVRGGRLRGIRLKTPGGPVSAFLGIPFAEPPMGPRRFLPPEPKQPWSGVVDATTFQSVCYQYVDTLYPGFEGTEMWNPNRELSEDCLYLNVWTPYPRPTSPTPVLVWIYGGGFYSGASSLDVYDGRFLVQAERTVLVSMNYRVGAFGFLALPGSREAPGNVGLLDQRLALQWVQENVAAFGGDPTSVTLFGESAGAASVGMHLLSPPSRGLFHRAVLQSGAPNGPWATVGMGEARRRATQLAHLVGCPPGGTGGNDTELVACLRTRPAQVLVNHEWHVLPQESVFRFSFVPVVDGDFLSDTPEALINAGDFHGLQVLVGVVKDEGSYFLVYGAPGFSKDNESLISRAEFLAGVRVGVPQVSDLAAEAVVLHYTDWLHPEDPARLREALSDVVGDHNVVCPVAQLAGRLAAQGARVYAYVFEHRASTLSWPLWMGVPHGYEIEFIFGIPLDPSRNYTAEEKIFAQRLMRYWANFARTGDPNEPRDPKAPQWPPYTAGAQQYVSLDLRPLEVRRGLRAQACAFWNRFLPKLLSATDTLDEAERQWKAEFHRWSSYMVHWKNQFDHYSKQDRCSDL

Consider `O=C(NCc1ccccc1)N1CCc2ccccc2[C@@H]1c1ccccc1` [2a, (S)-N-benzyl-1-phenyl-3,4-dihydroisoquinoline-2(1H)-carboxamide], for which the duration of immobility in [1] is recorded as 11.0 ± 7.1 s. Besides, in the data set on MAO (compounds concentration 100 µM), the “Inhibition Rate for MAO” value amounted to 29.2%.

As for `O=C(NCc1ccc(F)cc1)N1CCc2ccccc2[C@@H]1c1ccccc1` [2d, (S)-N-(p-fluorobenzyl)-1-phenyl-3,4-dihydroisoquinoline-2(1H)-carboxamide], the values for the 50% inhibitory concentration (IC50) at MAO-A [2], against MAO-B [4] and in the data set with MAO were 1380 nM, more than 100000 nM and 5780 nM, respectively. The “toxicity toward L929 cells (AO fluorescence staining)” value (“toxicity toward L929 cells” below) with L929 cells [3] is given as “no significant toxicity”. The “cytotoxicity against L929 cells” value in the data set with L929 cells [5] is “no obvious cytotoxicity”. Further, the viability at 24 h in the data set “MTT cytotoxicity test” is more than 90%.

On to `O=C(NCc1cccc(Br)c1)N1CCc2ccccc2[C@@H]1c1ccccc1` [2i, (S)-N-(m-bromobenzyl)-1-phenyl-3,4-dihydroisoquinoline-2(1H)-carboxamide], for which the results for the concentration for half-maximal inhibition (IC50) at MAO-A [2], against MAO-B [4] and in the data set with MAO were 1560 nM, 4300 nM and 1340 nM, respectively. In addition, in the data set with L929 cells [3], the “toxicity toward L929 cells” value is “no significant toxicity”. The “cytotoxicity against L929 cells” value in the data set on L929 cells [5] was “no obvious cytotoxicity”. The molecule further had a viability at 24 h in the data set “MTT cytotoxicity test” of more than 90%.

With `O=C(NCc1ccc(Br)cc1)N1CCc2ccccc2[C@@H]1c1ccccc1` [2j, (S)-N-(p-bromobenzyl)-1-phenyl-3,4-dihydroisoquinoline-2(1H)-carboxamide], the IC50 was 2480 nM against MAO-A [2], more than 100000 nM at MAO-B [4] and 1930 nM in the data set with MAO. Also, the “toxicity toward L929 cells” value with L929 cells [3] is on record as “no significant toxicity”. For the same molecule, the inhibition at 100 µM on BChE [6] came to 34.5%. Moreover, the “cytotoxicity against L929 cells” value in the data set on L929 cells [5] is recorded as “no obvious cytotoxicity”. In the data set “MTT cytotoxicity test”, this molecule gave a viability at 24 h of more than 90%.

Regarding `Cc1ccccc1CNC(=O)N1CCc2ccccc2[C@@H]1c1ccccc1` [2p, (S)-N-(o-methylbenzyl)-1-phenyl-3,4-dihydroisoquinoline-2(1H)-carboxamide], the IC50 was 2920 nM on MAO-A [2], 3880 nM against MAO-B [4] and 774 nM in the data set on MAO. Further, in the data set with L929 cells [3], the “toxicity toward L929 cells” value is “no significant toxicity”. For the same molecule, the “cytotoxicity against L929 cells” value with L929 cells [5] is “no obvious cytotoxicity”. In the data set “MTT cytotoxicity test”, this molecule yielded a viability at 24 h of more than 90%.

Take `COc1cccc(CNC(=O)N2CCc3ccccc3[C@@H]2c2ccccc2)c1` [2t, (S)-N-(m-methoxybenzyl)-1-phenyl-3,4-dihydroisoquinoline-2(1H)-carboxamide]: the half-maximal inhibitory concentration (IC50) stood at 2500 nM at MAO-A [2], 1610 nM against MAO-B [4] and 2080 nM in the data set with MAO. In the data set with L929 cells [3], the “toxicity toward L929 cells” value is recorded as “no significant toxicity”. For the same molecule, the inhibition at 100 µM on BChE [6] came out at 55%. The “cytotoxicity against L929 cells” value in the data set on L929 cells [5] is given as “no obvious cytotoxicity”. In addition, in the data set “MTT cytotoxicity test”, the viability at 24 h was more than 90%.

On to `COc1ccc(CNC(=O)N2CCc3ccccc3[C@@H]2c2ccccc2)c(OC)c1` [2v, (S)-N-(2,4-dimethoxybenzyl)-1-phenyl-3,4-dihydroisoquinoline-2(1H)-carboxamide], for which the IC50 on MAO-A [2] was found to be 3510 nM; against MAO-B [4], 3520 nM; in the data set with MAO, 958 nM. In addition, the “toxicity toward L929 cells” value with L929 cells [3] was “no significant toxicity”. In addition, the “cytotoxicity against L929 cells” value in the data set on L929 cells [5] is recorded as “no obvious cytotoxicity”. Besides, the viability at 24 h in the data set “MTT cytotoxicity test” was more than 90%.

As to `C[n+]1cc2cc3c(cc2c2ccc4cc5c(cc4c21)OCO5)OCO3` [avicine], the results for the IC50 (at MAO-A [7]; in data set [8]; in [9]) were 410 nM, 880 nM and 150 nM, respectively.

Take `COc1ccc2c(c[n+](C)c3c4cc5c(cc4ccc23)OCO5)c1OC` [chelerythrine]: the IC50 at MAO-B [10] is more than 20000 nM.

As for `COc1cc2c3c(c1OC)-c1cc4c(cc1CC3NCC2)OCO4` (stereo not drawn) [nornantenine], the results for the IC50 at AChE and on BChE [11] were 206000 nM and 94400 nM, respectively.

In the case of `COc1ccc(CC2c3cc(O)c(OC)cc3CCN2C)cc1O` (stereo not drawn) [reticuline], the figures for the half-inhibitory concentration (IC50) on AChE and at BChE [11] were 301000 nM and 65000 nM, respectively.
